“And” between values parts separate entries of the source, which are not always exact repeats. Equal values may be shown once.
Experiment: Biotin binding capacity
Details: 9-fold molar excess of [3H]biotin
Experimental: (§1) Biotin Binding and Dissociation. Biotin binding capacity was determined by incubation of a known quantity of fusion protein with a 9-fold molar excess of [3H]biotin (NEN Research Products, Boston, Mass.). After removal of uncomplexed biotin using streptavidin-immobilized beads (Pierce Chemical; Rockford, Ill.), the amount of [^3H]biotin associated with the fusion protein was determined.
as §1, with “Capacity.” for “and Dissociation.”, “[^3H]biotin” for “[3H]biotin”

Biotin binding capacity (average biotins bound): 4 biotins and 4.0 biotins
Substance: recombinant streptavidin: recombinant streptavidin (Roche Biochemical), control in biotin binding and dissociation
